These results are taken from PMC2360155, “Novel retinoic acid metabolism blocking agents have potent inhibitory activities on human breast cancer cells and tumour growth” (British Journal of Cancer, 2007).

In one assay the test system is ER-α. In words: Western immunoblotting for ER-α in MCF-7 cells. The note with it: 1–10 μM, 6 days, dose-dependent. It is filed as cell-based, human. How it is done: (§1) At the end of the treatment, cells were scrapped and collected by washing with ice-cold PBS in a centrifuge tube. Cells were centrifuged at 2500 r.p.m. for 10 min, the pellet was again washed with ice-cold PBS and centrifuged. The cell pellet was then suspended in chilled cell lysis buffer (0.1 M Tris–HCl, 0.5% Triton X-100, protease inhibitor cocktail) and sonicated on ice for 10–15 s. The homogenate was kept on ice for 30 min and then centrifuged at 13 000 r.p.m. for 30 min. The supernatant was used as cell lysate. The cell lysates were stored at −80°C. Protein concentration of the cell lysates was determined using Bio-Rad protein assay reagents.
(§2) Protein lysates from MCF-7 and T47D cells were subjected to sodium dodecyl sulphate–polyacrylamide gel electrophoresis (SDS–PAGE) and immunoblotted for different proteins. […] Immunoreactive bands were visualised using the enhanced chemiluminescence detection reagents and analysis system (Amersham Bioscences) according to the manufacturer's instructions and quantified by densitometry using ImageQuant software version 5.
Figure 4 Western immunoblotting analysis of whole-cell lysates of treated MCF-7 cells for the expression of ER-α. […] Numbers below the blot show fold increase in expression of the protein as analysed by ImageQuant densitometry analysis. […]

The subject of a further assay is Bad. In words: Western immunoblotting for Bad in MCF-7 and T47D cells. It is filed as cell-based, human. The note with it: 1, 5 and 10 μM each; 6 days; no significant dose-dependent effect. As for the experimental part:
as §1, §2
(§3) Figure 7 (A) Western immunoblotting of whole-cell lysates of treated MCF-7 and T47D cells for the expression of Bad. […] Numbers below the blot show fold increase in expression of the protein as analysed by ImageQuant densitometry analysis. […]

A further assay relates to caspase-9. In words: Western immunoblotting for caspase-9 in T47D cells. It is filed as cell-based, human. The note with it: 6 days. As for the experimental part: as §1
Protein lysates from MCF-7 and T47D cells were subjected to sodium dodecyl sulphate–polyacrylamide gel electrophoresis (SDS–PAGE) and immunoblotted for different proteins. Equal amounts of protein (25–50 μg) were subjected to SDS–PAGE at 60 V for 3 h using the mini PROTEAN3 electrophoresis module assembly (Bio-Rad, Hercules, CA, USA), and transferred to nitrocellulose membranes (Hybond ECL, Amersham). Immunodetections were carried out using antibodies against CK 8/18 (1° antibody – 1 : 8000 in 10% milk PBST), E-cadherin (1° antibody – 1 : 1000 in 5% milk in TBST) and ER-α (1° antibody – 1 : 200 in 5% milk PBST) purchased from Santa Cruz Biotechnology Inc. Antibodies against PARP (1° antibody – 1 : 1000 in 5% milk TBST), cyclin- D1 (1° antibody – 1 : 2000 in 10% milk TBST), caspase-9 (1° antibody – 1 : 1000 in 10% milk TBST) and BAD (1° antibody – 1 : 1000 in 5% BSA TBST) were obtained from Cell Signaling Technology. Antibody for β-actin was obtained from Calbiochem (CA, USA). Secondary anti-mouse IgG HRP conjugate antibody was purchased from Calbiochem and Bio-Rad. Secondary anti-rabbit IgG HRP conjugate antibody was bought from Bio-Rad as well as from Kirkegaard and Perry laboratories (Gaithersburg, MD, USA). Immunoreactive bands were visualised using the enhanced chemiluminescence detection reagents and analysis system (Amersham Bioscences) according to the manufacturer's instructions and quantified by densitometry using ImageQuant software version 5.
Figure 7 (A) Western immunoblotting of whole-cell lysates of treated MCF-7 and T47D cells for the expression of Bad. […] Numbers below the blot show fold increase in expression of the protein as analysed by ImageQuant densitometry analysis. Membranes were stripped and probed for β-actin to verify equal protein loading. Primary antibody (Cell Signaling Technology) 1 : 1000 in 5% BSA TBST overnight at 4°C and secondary antibody (anti-rabbit) 1 : 2000 for 1 h at RT. This experiment was repeated twice with similar results. […] Numbers below the blot show fold increase in the active form of caspase-9 as compared with control. Membrane was stripped and probed for β-actin to verify equal amount of protein loading. The primary and secondary antibodies and their dilutions are as follows: primary antibody (Cell Signaling Technology), 1 : 1000 in 10% milk TBST overnight at 4°C and secondary antibody (anti-rabbit) 1 : 2000 in 10% milk TBST for 1 h at RT. Densitometry analysis was performed by ImageQuant software. This experiment was repeated twice with similar results. (C) Western immunoblotting of whole-cell lysates of treated MCF-7 and T47D cells for the expression of full-length and cleaved PARP. […] T47D cells were treated with RAMBAs (VN/50-1 and VN/14-1) for 6 days and then cell lysates were electrophoresed using 10% SDS–PAGE and subjected to Western blotting. Lane 1: control; lanes 2–4: VN/50-1 (1, 5 and 10 μM); lanes 5–7: VN/14-1 (1, 5 and 10 μM). Numbers below the blot show fold increase in expression of the protein as analysed by ImageQuant densitometry analysis. Membranes were stripped and probed for β-actin to verify equal protein loading. Primary antibody (Cell Signaling Technology) 1 : 1000 in 5% milk TBST overnight at 4°C and secondary antibody (anti-rabbit) 1 : 2000 for 1 h at RT. […]

The next assay deals with PARP. In words: Western immunoblotting for cleaved PARP in MCF-7 cells. The assay is classed as cell-based, human. The note with it: 5 μM, 6 days. As for the experimental part:
as §1, §2, §3

For the next assay, the target named is T1, RARβ (Mus musculus, UniProt P22605).
T1 construct: expressed in transfected cells; host or cells: CV-1 cells
T1 sequence (P22605 1-448 isoform P22605-3): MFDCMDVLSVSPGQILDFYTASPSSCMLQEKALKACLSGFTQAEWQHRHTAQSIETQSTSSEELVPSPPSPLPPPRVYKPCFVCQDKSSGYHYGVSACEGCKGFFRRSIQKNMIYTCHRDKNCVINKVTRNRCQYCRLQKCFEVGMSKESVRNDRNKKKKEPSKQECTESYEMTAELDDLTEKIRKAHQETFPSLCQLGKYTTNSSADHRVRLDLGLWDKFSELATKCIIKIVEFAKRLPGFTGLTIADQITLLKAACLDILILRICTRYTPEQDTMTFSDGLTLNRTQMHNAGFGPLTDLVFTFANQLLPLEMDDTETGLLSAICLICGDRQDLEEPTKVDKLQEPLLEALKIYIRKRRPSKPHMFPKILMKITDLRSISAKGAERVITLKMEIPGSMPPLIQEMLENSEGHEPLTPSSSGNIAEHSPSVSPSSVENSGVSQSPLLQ
In words: Transactivation assay (RARE-CAT reporter, CV-1 cells), RARβ. The assay is classed as cell-based. The note with it: 50% of maximal activity obtained with 10^−6 M all-trans-RA. How it is done: Briefly, CV-1 cells were cotransfected with 4 μg RAR subtype (RARα, RARβ or RARγ) expression vector construct in pSG5, 4 μg RARE-CAT reporter DNA and 1 μg pCMV-β-gal DNA. Twenty-four hours following transfection, the cells were treated with various concentrations of each RAMBA ranging from 10^−11–10^−5 M along with an ethanol carrier control. Additional cells were treated with 10^−6 M all-trans-RA for normalisation. Twenty-four hours later, the cells were harvested and CAT and β-gal activities were assayed.

On to `CC1=C(/C=C/C(C)=C/C=C/C(C)=C/C(=O)O)C(C)(C)CCC1` [ATRA, all-trans-retinoic acid, reference compound], for which, in the assay with ER-α, the “Increase in expression of ER-α” value is reported as “from two- to eight-fold”. In the assay with Bad, the “Upregulation of Bad protein” value was “about two-fold”. In the assay on caspase-9 (5 μM), the “Expression of procaspase-9 (47 kDa), control = 1” value (from here on “Expression … control = 1”) is given as 0.4 fold and the “Increase of active form of caspase-9 (37 kDa) compared with untreated control” value (“Increase of active form … with untreated control” below) was 1.7 fold. Moreover, in the assay with caspase-9 (10 μM), the “Expression … control = 1” value came to 0.3 fold and the “Increase of active form … with untreated control” value is recorded as 1.8 fold. In the assay with PARP, the “Increase in level of cleaved PARP (89 kDa) compared with control” value is listed as “almost two-fold increases”.
For the molecule `CC1=C(/C=C/C(C)=C/C=C/C(C)=C/C(=O)O)C(C)(C)CCC1n1ccnc1` (stereo not shown) [VN/14-1], the EC50 on RARβ is 1500 nM. For the same molecule, the “Increase in expression of ER-α” value with ER-α was “from four- to six-fold”. Moreover, the “Upregulation of Bad protein” value with Bad is “about two-fold”. In addition, in the assay with caspase-9 (5 μM), the “Expression … control = 1” value stood at 0.4 fold and the “Increase of active form … with untreated control” value is 1.7 fold. Further, in the assay with caspase-9 (10 μM), the “Expression … control = 1” value is recorded as 0.7 fold and the “Increase of active form … with untreated control” value stood at 1.7 fold. The “Increase in level of cleaved PARP (89 kDa) compared with control” value with PARP is on record as “almost two-fold increases”.
Take `CC1=C(/C=C/C(C)=C/C=C/C(C)=C\C(=O)Nc2ccc(O)cc2)C(C)(C)CCC1n1ccnc1` (stereo not shown) [VN/69-1]: at RARβ, the EC50 was above 10000 nM.
